Reference: patent US12377092B2, “Polycomb inhibitors and uses thereof” (FONDAZIONE ISTITUTO FIRC DI ONCOLOGIA MOLECOLARE (IFOM), priority 2017, dated 2025)

Test system: EndMT markers (Klf4, Sca1 and Fsp1)
Assay: Real time (RT-PCR) analysis of EndMT markers, wild type and CCM3 knock out immortalized lung endothelial cells
Assay type: cell-based, mouse
Conditions: 72 hours
Procedure: Cells were seeded 6.3×10^4 cells/cm^2. The day after, PTC209 and UNC1999 were added to the confluent cells. Drugs were left for one or three days depending on the aim of the experiment. Final concentrations used for the two drugs were: 1 uM PTC209 and 5 uM UNC1999.
RNA extraction was performed both with (A) RNeasy kits (Promega) or (B) RNAeasy Mini Kit (QIAGEN). The latter allows also the extraction of proteins from the same sample. The RNA (500 ng) was reverse transcribed with random hexamers (High Capacity cDNA Archive kits; Applied Biosystems) in a final volume of 30 uL. Reaction were made with a thermocycler (Eppendorf) 10 min at 25° C. followed by 2 hours at 37° C. cDNA (5 ng) was amplified in triplicate in a reaction volume of 15 uL using TaqMan Gene Expression Assays (Applied Biosystems) in a ABI/Prism 7900 HT using a pre PCR step of 10 min at 95° C., followed by 40 cycles of 15 seconds at 95° C. and 60 seconds at 60° C. For each sample, the expression level was determined with the comparative threshold cycle (Ct) method, and normalized to the housekeeping genes encoding 18S, glyceraldehyde-3-phosphate dehydrogenase (GAPDH) and hypoxanthine-guanine phosphoribosyltransferase (hprt1). Ct or threshold cycle, represents the PCR cycle at which an increase in reporter fluorescence above a base-line signal can first be detect.
Wild type and CCM3 knock out cells were treated with either PTC209 or DMSO starting from the day after seeding, when cells were confluent. For this experiment cells were lysed for western blot and real-time analysis after 72 hours of treatment to check a long-term effect of PTC209.
To perform these experiments, immortalized lung endothelial cells both wild type and CCM3 knock out were treated, with the same experimental strategy used for PTC209, with UNC1999 for 72 hours and subsequently lysed for western blot and real time analysis. UNC1999 was used in its specific optimal concentration, which was different to PTC209. As control DMSO was given to the cells in a volume equal to the volume of DMSO in which UNC1999 was previously dissolved to rich the optimal concentration.
Briefly, wild type and CCM3 knock out cells were treated with either PTC209, UNC1999 or a combination of the two. PTC209 and UNC1999 were administrated at the same concentration used for the single treatment and DMSO was given as control in a volume equal to the sum of volumes of DMSO in which UNC1999 and PTC209 were previously dissolved.

**Q.** `COc1cc(Br)c(Nc2nc(-c3c(C)nc4ncccn34)cs2)c(Br)c1` [PTC209, N-(2,6-dibromo-4-methoxyphenyl)-4-(2-methylimidazo[1,2-a]pyrimidin-3-yl)thiazol-2-amine] was tested. Which “Klf4 transcript up-regulation induced by CCM3 deletion (real time analysis)” value (CCM3 knock out cells) did it give?
**A.** completely rescued

**Q.** And the “Klf4, Sca1 and Fsp1 transcripts (real time analysis)” value (CCM3 knock out cells, 1 uM PTC209, 5 uM UNC1999, vs DMSO)?
**A.** downregulated

**Q.** And the “Klf4 transcript (real time analysis)” value (wild type cells (physiological condition), CCM3 model)?
**A.** not affected
